Test results from patent US12522590B2, “Brefeldin a derivatives, preparation method and use thereof” (OCEAN UNIVERSITY OF CHINA, priority 2019, dated 2026).
≈ marks a conversion by molar mass, not a printed value. Like-named read-outs stand apart in the source and are kept apart here.

Legend:
[1] = Solubility test (shake 37° C., 24 h, HPLC); format: physicochemical; conditions: thermodynamic from solid, x ± s
Method: The term “solubility” refers to the mass of solute dissolved when a solid substance reaches saturation state in 100 g solvent at a certain temperature. Solubility test refer to the following references: ZHU Shang-bin, et al. Preparation, characterization, and physicochemical properties of arbutin phospholipid complex[J]. Chinese Traditional and Herbal Drugs. 2020, 1-10.
Methods: Excess BFA and the compounds disclosed herein were added to 10 mL of three solvents, methanol, acetone and 5% DMSO+95% H2O, respectively, and shaken on a shaker at 37° C. at 100 r/min for 24 h. After 24 h, the samples were centrifuged at 15 000 r/min for 15 min to remove the undissolved compounds. The supernatant was filtered using a 0.45 μm membrane filter. The supernatant was appropriately diluted with methanol and contents of the compounds were determined by HPLC method to calculate the solubility.

[2] = system: pancreatic cancer cells PANC-1; experiment: Cell proliferation assay (CCK-8); format: cell-based, human; conditions: Homo sapiens, PANC-1, 72 h
Source text: (§1) CCK-8 method: The CCK-8 method is a highly sensitive, non-radioactive colorimetric assay for the determination of the number of viable cells in cell proliferation or cytotoxicity assays. The orange formazan dye produced by the bioreduction of CCK-8 by intracellular dehydrogenase is soluble in the cell culture medium, and the amount of formazan dye produced is proportional to the number of living cells. The kit used in this method is the tetrazolium salt-WST-8 (2-(2-methoxy-4-nitrophenyl)-3-(4-nitrophenyl)-5-(2,4-disulfophenyl)-2H-tetrazolium monosodium salt) developed by Dojindo Chemical Research Institute (Dojindo), which is capable of being reduced to a water-soluble formazan dye in the presence of the electronic carrier 1-Methoxy PMS.
(§2) Human cervical cancer cells Hela, pancreatic cancer cells PANC-1, esophageal cancer cells Eca-109, human leukemia cells K562, human lung cancer cells A549, human liver cancer cells HepG2, human gastric cancer cells MKN-45, human breast cancer cells MCF7 were cultured in DMEM medium containing 10% FBS (fetal bovine serum), 100 U/mL penicillin and 100 μg/ml streptomycin. Hepatocellular carcinoma cells Bel-7402 were cultured in RPMI-1640 medium containing 10% FBS (fetal bovine serum), 100 U/ml penicillin and 100 μg/ml streptomycin. All cells were placed in a cell culture incubator at 37° C. with 5% CO2. Cells fluid was changed every 3-5 days, and after 80% cell fusion, trypsin digestion and passaging were performed to keep the cells in good logarithmic growth phase.
(§3) All the samples to be tested were dissolved in DMSO.
(§4) Cells in logarithmic growth phase were inoculated in 96-well plates with 5000 cells/well respectively, and after 24 h of incubation, samples were added (final concentrations as shown in the table), and biplicate wells were set up for each sample. The amount of solvent of DMSO was not higher than 2‰. After 72 h, 10 μL of CCK-8 solution was added to each well and incubated for 1.5˜3 h at 37° C. The OD value at 450 nm was measured on an plate reader. Inhibition rate (%)=(1−[(OD450 dosed well−OD450 blank well)/(OD450 control well−OD450 blank well)])×100%
(§5) The fitted IC50 values were calculated using the log (inhibitor) vs. response—Variable slop analysis method in GraphPad Prism software.

[3] = system: esophageal cancer cells Eca-109; experiment: Cell proliferation assay (CCK-8); format: cell-based, human; conditions: Homo sapiens, Eca-109, 72 h
Source text: as §1, §2, §3, §4, §5

[4] = system: human leukemia cells K562; experiment: Cell proliferation assay (CCK-8); format: cell-based; conditions: Homo sapiens, K562, 72 h
Source text: as §1, §2, §3, §4, §5

[5] = system: human lung cancer cells A549; experiment: Cell proliferation assay (CCK-8); format: cell-based; conditions: Homo sapiens, A549, 72 h
Source text: as §1, §2, §3, §4, §5

[6] = system: human breast cancer cells MCF7; experiment: Cell proliferation assay (CCK-8); format: cell-based; conditions: Homo sapiens, MCF7, 72 h
Source text: as §1, §2, §3, §4, §5

[7] = system: human gastric cancer cells MKN-45; experiment: Cell proliferation assay (CCK-8); format: cell-based; conditions: Homo sapiens, MKN-45, 72 h
Source text: as §1, §2, §3, §4, §5

[8] = system: Human cervical cancer cells Hela; experiment: Cell proliferation assay (CCK-8); format: cell-based; conditions: Homo sapiens, 72 h
Source text: as §1, §2, §3, §4, §5

[9] = system: human liver cancer cells HepG2; experiment: Cell proliferation assay (CCK-8); format: cell-based; conditions: Homo sapiens, HepG2, 72 h
Source text: as §1, §2, §3, §4, §5

[10] = Pharmacokinetic evaluation (plasma BFA by LC/MS/MS); format: in vivo, SD rats; conditions: rat, in vivo, 40 mg/kg
Method: SD rats were weighed after an overnight fasting of 15 hours and randomly grouped according to weights. The appropriate amount of the compound was accurately weighed, and a final volume of 5% DMSO, 10% Solutol, and 85% Saline was added and vortexed or sonicated to make a thorough mixing to provide a 4 mg/mL solution for intravenous administration (iv.). Venous blood was taken at the time points of 0, 0.083 (iv. group only), 0.25, 0.5, 1.0, 2.0, 5.0, 7.0 and 24 h, via jugular vein or other suitable means, with approximately 0.20 mL of each sample collected, anticoagulated with sodium heparin (with 6.25 μL of 200 mM DDVP/tube added), and placed on ice after collection. The plasma was separated by centrifugation within 2 hours (centrifugal force 6800 g, 6 min, 2-8° C.). The collected plasma samples were stored in a −70° C. refrigerator before analysis, and the remaining plasma samples after analysis were kept stored at −20° C. or −70° C. until LC/MS/MS analysis was performed. The accuracy of QC samples was evaluated while analyzing the samples, and more than 66% of the QC samples were required to have an accuracy between 80-120%. When plasma drug concentration-time curves were plotted, BLQ were recorded as 0. For the calculation of pharmacokinetic parameters, the concentration before dosing was counted as 0; BLQ before Cmax (including “No peak”) was counted as 0; BLQ after Cmax (including “No peak”) was not included in the calculation. Pharmacokinetic parameters such as AUC(0-t), T1/2, Cmax, Tmax and MRT were calculated according to the blood concentration data of BFA at different time points using WinNonlin.

[11] = aqueous with cosolvent or surfactant or cyclodextrin, 5% DMSO + 95% H2O, n = 3, read-out: Solubility, 5% DMSO + 95% H2O
[12] = organic solvent or mixture, acetone, n = 3, read-out: Solubility, Acetone
[13] = organic solvent or mixture, methanol, n = 3, read-out: Solubility, Methanol

SMILES: C[C@H]1CCC/C=C/[C@@H]2C[C@H](OC(=O)OCCc3cccnc3)C[C@H]2[C@H](O)/C=C/C(=O)O1 [Compound 9, BFA-7-(pyridine-3-ylethyl)carbonate]
- solubility at 24 h [1, 11]: 2700 ± 770 µg/mL
- solubility at 24 h [1, 12]: 68800 ± 2530 µg/mL (≈ 160 mM)
- solubility at 24 h [1, 13]: 69000 ± 1810 µg/mL (≈ 161 mM)
- IC50 [2]: 100 to 1000 nM
- IC50 [3]: 100 to 1000 nM
- IC50 [4]: 100 to 1000 nM
- IC50 [5]: < 100 nM
- IC50 [6]: 100 to 1000 nM
- IC50 [7]: 100 to 1000 nM
- IC50 [8]: < 100 nM
- IC50 [9]: 100 to 1000 nM

SMILES: C[C@H]1CCC/C=C/[C@@H]2C[C@H](OC(=O)OCCCc3cccnc3)C[C@H]2[C@H](O)/C=C/C(=O)O1 [Compound 10]
- IC50 [2]: 100 to 1000 nM
- IC50 [3]: < 100 nM
- IC50 [4]: 100 to 1000 nM
- IC50 [5]: 100 to 1000 nM
- IC50 [6]: 100 to 1000 nM
- IC50 [7]: 100 to 1000 nM
- IC50 [8]: 100 to 1000 nM
- IC50 [9]: 100 to 1000 nM

SMILES: C[C@H]1CCC/C=C/[C@@H]2C[C@H](OC(=O)OCc3cncc4ccccc34)C[C@H]2[C@H](O)/C=C/C(=O)O1 [Compound 12]
- IC50 [2]: 100 to 1000 nM
- IC50 [3]: 100 to 1000 nM
- IC50 [4]: 100 to 1000 nM
- IC50 [5]: 100 to 1000 nM
- IC50 [6]: 100 to 1000 nM
- IC50 [7]: 100 to 1000 nM
- IC50 [8]: 100 to 1000 nM
- IC50 [9]: < 100 nM

SMILES: C[C@H]1CCC/C=C/[C@@H]2C[C@H](OC(=O)OCCc3ccccc3)C[C@H]2[C@H](O)/C=C/C(=O)O1 [Compound A, reference compound]
- solubility at 24 h [1, 11]: 250 ± 130 µg/mL
- solubility at 24 h [1, 12]: 9360 ± 1260 µg/mL (≈ 21.8 mM)
- solubility at 24 h [1, 13]: 9930 ± 1210 µg/mL (≈ 23.2 mM)
- IC50 [2]: 1000 to 10000 nM
- IC50 [3]: 100 to 1000 nM
- IC50 [4]: 100 to 1000 nM
- IC50 [5]: 100 to 1000 nM
- IC50 [6]: 1000 to 10000 nM
- IC50 [7]: 1000 to 10000 nM
- IC50 [8]: 1000 to 10000 nM
- IC50 [9]: 100 to 1000 nM

SMILES: C[C@H]1CCC/C=C/[C@@H]2C[C@H](OC(=O)OCc3cccc(F)c3)C[C@H]2[C@H](O)/C=C/C(=O)O1 [Compound B, reference compound]
- solubility at 24 h [1, 11]: 260 ± 160 µg/mL
- solubility at 24 h [1, 12]: 9550 ± 1230 µg/mL (≈ 22.1 mM)
- solubility at 24 h [1, 13]: 9760 ± 1210 µg/mL (≈ 22.6 mM)
- IC50 [2]: 100 to 1000 nM
- IC50 [3]: 100 to 1000 nM
- IC50 [4]: 1000 to 10000 nM
- IC50 [5]: 1000 to 10000 nM
- IC50 [6]: 100 to 1000 nM
- IC50 [7]: 1000 to 10000 nM
- IC50 [8]: 1000 to 10000 nM
- IC50 [9]: 100 to 1000 nM

SMILES: COC(=O)O[C@@H]1C[C@H]2[C@H](O)/C=C/C(=O)O[C@@H](C)CCC/C=C/[C@@H]2C1 [Compound C, reference compound]
- solubility at 24 h [1, 11]: 250 ± 230 µg/mL
- solubility at 24 h [1, 12]: 9260 ± 1130 µg/mL (≈ 27.4 mM)
- solubility at 24 h [1, 13]: 9440 ± 1510 µg/mL (≈ 27.9 mM)
- IC50 [2]: 100 to 1000 nM
- IC50 [3]: 1000 to 10000 nM
- IC50 [4]: 100 to 1000 nM
- IC50 [5]: 100 to 1000 nM
- IC50 [6]: 100 to 1000 nM
- IC50 [7]: 1000 to 10000 nM
- IC50 [8]: 1000 to 10000 nM
- IC50 [9]: 100 to 1000 nM

SMILES: C[C@H]1CCC/C=C/[C@@H]2C[C@H](OC(=O)OCc3cccnc3)C[C@H]2[C@H](OC(=O)OCc2cccnc2)/C=C/C(=O)O1 [Compound D, reference compound]
- solubility at 24 h [1, 11]: 510 ± 130 µg/mL
- solubility at 24 h [1, 12]: 21200 ± 1120 µg/mL (≈ 38.4 mM)
- solubility at 24 h [1, 13]: 20400 ± 1410 µg/mL (≈ 37.1 mM)
- Blood concentrations detected within 1 h [10]: low blood concentrations
- Drug in blood after 1 h [10]: basically undetectable
- IC50 [2]: 1000 to 10000 nM
- IC50 [3]: 1000 to 10000 nM
- IC50 [4]: 100 to 1000 nM
- IC50 [5]: 100 to 1000 nM
- IC50 [6]: 100 to 1000 nM
- IC50 [7]: 1000 to 10000 nM
- IC50 [8]: 1000 to 10000 nM
- IC50 [9]: 1000 to 10000 nM
